Experiment: Spreadability study (125 g load on 2 g product between two petri plates)
Format: physicochemical
Conditions: 15 minutes after 125 g load on 2 g of product
Protocol: Spreadability studies were also performed for the formulations described in Table 4. Spreadability studies were conducted by applying a 125 g weight load on 2 g of product placed between two petri plates. The weight was placed on the petri plate over the product and the mean diameter of spreading was monitored over 1, 5, and 15 minutes. Based upon the mean spread diameter, the spread area was calculated. See, e.g., De Paula et al., Drug Dev Ind Pharm 24(3): 235-241 (1998). The results for spreadability are indicated in Table 5 for spread area at 15 minutes after the 125 g load was applied.

SMILES | % Spread as compared to estimated human vaginal surface area (87.5 cm^2) [%] | Spread Area (cm^2)
OCC(O)CO [Glycerin] | 80.2 | 70.2
O [Water] | 89.4 | 78.2
